Converted amounts (≈) assume the structure as drawn.
Assays:
[1] = Kinetic aqueous solubility of the compound in PBS buffer at pH 7.4 incubated for 24 hrs under shaking condition by LC-CLND assay; assay type: physicochemical; conditions: PBS buffer, pH 7.4; read-out: Kinetic_solubility
[2] = Apparent permeability from apical to basolateral side in MDCK cells at 10 uM incubated for 180 mins and measured up to 180 min by LC-MS/MS analysis; assay type: ADME, cell-based, Canis lupus familiaris; conditions: dog
[3] = Protein binding in human plasma at 5 uM incubated for 4 hrs by LC-MS/MS analysis; assay type: ADME, cell-free; conditions: read-out: PPB (converted)
[4] = Protein binding in mouse plasma at 5 uM incubated for 4 hrs by LC-MS/MS analysis; assay type: ADME, cell-free; conditions: read-out: PPB (converted)
[5] = Volume of distribution at steady state in mouse at 1 mg/kg, iv; assay type: ADME, organism-based; conditions: in vivo, read-out: Vdss
[6] = Cmax in mouse at 5 mg/kg, po; assay type: ADME, organism-based; set-up: dose 5 mg/kg, route oral; conditions: in vivo, read-out: Cmax
[7] = AUC (infinity) in mouse at 5 mg/kg, po; assay type: ADME, organism-based; set-up: dose 5 mg/kg, route oral, time infinity; conditions: in vivo
[8] = AUC (infinity) in mouse at 30 mg/kg, po; assay type: ADME, organism-based; set-up: dose 30 mg/kg, time infinity, route oral; conditions: in vivo
[9] = AUC (infinity) in mouse at 100 mg/kg, po administered as suspension in MCT; assay type: ADME, organism-based; set-up: dose 100 mg/kg, time infinity, route oral; conditions: in vivo
[10] = Oral bioavailability in mouse at 5 mg/kg; assay type: ADME, organism-based; conditions: in vivo
[11] = Oral bioavailability in mouse at 100 mg/kg administered as suspension in MCT; assay type: ADME, organism-based; conditions: in vivo
[12] = Plasma clearance in mouse at 1 mg/kg, iv; assay type: ADME, organism-based
[13] = Oral bioavailability in monkey at 1 mg/kg; assay type: ADME, organism-based, Macaca mulatta; conditions: rhesus monkey, in vivo
[14] = Half-life in dog at 1 mg/kg, po; assay type: ADME, organism-based, Canis lupus familiaris; conditions: in vivo
[15] = Cmax in mouse at 100 mg/kg, po administered as suspension in 10% captisol; assay type: ADME, organism-based; set-up: dose 100 mg/kg, route oral; conditions: in vivo
[16] = Cmax in mouse at 300 mg/kg, po administered as suspension in MCT; assay type: ADME, organism-based; set-up: dose 300 mg/kg, route oral; conditions: in vivo
[17] = Cmax in mouse at 300 mg/kg, po administered as suspension in 10% captisol; assay type: ADME, organism-based; set-up: dose 300 mg/kg, route oral; conditions: in vivo
[18] = AUC (infinity) in mouse at 300 mg/kg, po administered as suspension in MCT; assay type: ADME, organism-based; set-up: dose 300 mg/kg, route oral, time infinity; conditions: in vivo
[19] = Oral bioavailability in mouse at 300 mg/kg administered as suspension in MCT; assay type: ADME, organism-based; conditions: in vivo
[20] = Oral bioavailability in mouse at 300 mg/kg administered as suspension in 10% captisol; assay type: ADME, organism-based; conditions: in vivo
[21] = Half-life in mouse at 30 mg/kg, po; assay type: ADME, organism-based; conditions: in vivo
[22] = Half-life in mouse at 100 mg/kg, po administered as suspension in 10% captisol; assay type: ADME, organism-based; conditions: in vivo
[23] = Protein binding in rat plasma at 5 uM incubated for 4 hrs by LC-MS/MS analysis; assay type: ADME, cell-free; conditions: read-out: PPB (converted)
[24] = Protein binding in dog plasma at 5 uM incubated for 4 hrs by LC-MS/MS analysis; assay type: ADME, cell-free, Canis lupus familiaris; conditions: read-out: PPB (converted)
[25] = Protein binding in monkey plasma at 5 uM incubated for 4 hrs by LC-MS/MS analysis; assay type: ADME, cell-free, Macaca mulatta; conditions: rhesus monkey, read-out: PPB (converted)
[26] = Plasma clearance in rat at 1 mg/kg, iv; assay type: ADME, organism-based
[27] = Plasma clearance in monkey at 1 mg/kg, iv; assay type: ADME, organism-based, Macaca mulatta; conditions: rhesus monkey
[28] = Plasma clearance in dog at 0.3 mg/kg, iv; assay type: ADME, organism-based, Canis lupus familiaris
[29] = Volume of distribution at steady state in rat at 1 mg/kg, iv; assay type: ADME, organism-based; conditions: in vivo, read-out: Vdss
[30] = Volume of distribution at steady state in dog at 0.3 mg/kg, iv; assay type: ADME, organism-based, Canis lupus familiaris; conditions: in vivo, read-out: Vdss
[31] = Volume of distribution at steady state in monkey at 1 mg/kg, iv; assay type: ADME, organism-based, Macaca mulatta; conditions: rhesus monkey, in vivo, read-out: Vdss
[32] = Cmax in rat at 1 mg/kg, po; assay type: ADME, organism-based; set-up: dose 1 mg/kg, route oral; conditions: in vivo
[33] = Cmax in monkey at 1 mg/kg, po; assay type: ADME, organism-based, Macaca mulatta; set-up: dose 1 mg/kg, route oral; conditions: rhesus monkey, in vivo
[34] = AUC (infinity) in rat at 1 mg/kg, po; assay type: ADME, organism-based; set-up: dose 1 mg/kg, time infinity, route oral; conditions: in vivo
[35] = AUC (infinity) in dog at 1 mg/kg, po; assay type: ADME, organism-based, Canis lupus familiaris; set-up: dose 1 mg/kg, time infinity, route oral; conditions: in vivo
[36] = AUC (infinity) in monkey at 1 mg/kg, po; assay type: ADME, organism-based, Macaca mulatta; set-up: dose 1 mg/kg, time infinity, route oral; conditions: rhesus monkey, in vivo
[37] = Oral bioavailability in rat at 1 mg/kg; assay type: ADME, organism-based; conditions: in vivo
[38] = Half-life in monkey at 1 mg/kg, po; assay type: ADME, organism-based, Macaca mulatta; conditions: rhesus monkey, in vivo
Mus musculus [39] = assay: In vivo inhibition of IRAK4 in CpG ODN 1826 induced C57BL/6 mouse assessed as blockade of TLR9 signalling by measuring IL-6 levels at 10 mg/kg, po treated 1 hr prior to CpG ODN 1826 stimulation and measured after 1 hr by MSD assay; assay type: functional; set-up: scale not given: the % may be the effect or the level left
Mus musculus [40] = assay: In vivo inhibition of IRAK4 in CpG ODN 1826 induced C57BL/6 mouse assessed as blockade of TLR9 signalling by measuring IL-6 levels at 30 mg/kg, po treated 1 hr prior to CpG ODN 1826 stimulation and measured after 1 hr by MSD assay; assay type: functional; set-up: scale not given: the % may be the effect or the level left
Mus musculus [41] = assay: In vivo inhibition of IRAK4 in CpG ODN 1826 induced C57BL/6 mouse assessed as blockade of TLR9 signalling by measuring IL-6 levels at 100 mg/kg, po treated 1 hr prior to CpG ODN 1826 stimulation and measured after 1 hr by MSD assay; assay type: functional; set-up: scale not given: the % may be the effect or the level left
Mus musculus [42] = assay: In vivo inhibition of IRAK4 in CpG ODN 1826 induced C57BL/6 mouse assessed as blockade of TLR9 signalling by measuring TNFalpha levels at 1 mg/kg, po treated 1 hr prior to CpG ODN 1826 stimulation and measured after 1 hr by MSD assay; assay type: functional; set-up: scale not given: the % may be the effect or the level left
Mus musculus [43] = assay: In vivo inhibition of IRAK4 in CpG ODN 1826 induced C57BL/6 mouse assessed as blockade of TLR9 signalling by measuring TNFalpha levels at 10 mg/kg, po treated 1 hr prior to CpG ODN 1826 stimulation and measured after 1 hr by MSD assay; assay type: functional; set-up: scale not given: the % may be the effect or the level left
Mus musculus [44] = assay: In vivo inhibition of IRAK4 in CpG ODN 1826 induced C57BL/6 mouse assessed as blockade of TLR9 signalling by measuring TNFalpha levels at 30 mg/kg, po treated 1 hr prior to CpG ODN 1826 stimulation and measured after 1 hr by MSD assay; assay type: functional; set-up: scale not given: the % may be the effect or the level left
Mus musculus [45] = assay: In vivo inhibition of IRAK4 in CpG ODN 1826 induced C57BL/6 mouse assessed as blockade of TLR9 signalling by measuring TNFalpha levels at 100 mg/kg, po treated 1 hr prior to CpG ODN 1826 stimulation and measured after 1 hr by MSD assay; assay type: functional; set-up: scale not given: the % may be the effect or the level left
[46] = Drug concentration in CpG ODN 1826 induced C57BL/6 mouse plasma at 1 to 100 mg/kg, po treated 1 hr prior to CpG ODN 1826 stimulation and measured after 1 hr by MSD assay; assay type: ADME, organism-based; conditions: in vivo
[47] = Half-life in mouse at 300 mg/kg, po administered as suspension in MCT; assay type: ADME, organism-based; conditions: in vivo
[48] = Half-life in mouse at 300 mg/kg, po administered as suspension in 10% captisol; assay type: ADME, organism-based; conditions: in vivo

C[C@]1(CO)Cc2cc(NC(=O)c3cnn4cccnc34)c(N3CCOCC3)cc2O1
solubility kinetic at 24 h [1]: 10 µM (≈ 4.09 µg/mL)
Papp A→B at 3 h, 10 µM [2]: 15 ×10⁻⁶ cm/s
fraction unbound at 4 h, 5 µM [3]: 0.44
fraction unbound at 4 h, 5 µM [4]: 0.14
Vd [5]: 1.1 L/kg
Cmax [6]: 2.1 µM
AUC(0-inf) [7]: 2.3 µM·h
AUC(0-inf) [8]: 17 µM·h
AUC(0-inf) [9]: 15.1 µM·h
bioavailability [10]: 59%
bioavailability [11]: 19%
clearance [12]: 54 mL/min/kg
bioavailability [13]: 85%
half-life [14]: 1.7 h
Cmax [15]: 9.7 µM
Cmax [16]: 10 µM
Cmax [17]: 14 µM
AUC(0-inf) [18]: 63 µM·h
bioavailability [19]: 22%
bioavailability [20]: 33%
half-life [21]: 1.3 h
half-life [22]: 3.3 h
fraction unbound at 4 h, 5 µM [23]: 0.21
fraction unbound at 4 h, 5 µM [24]: 0.34
fraction unbound at 4 h, 5 µM [25]: 0.49
clearance [26]: 6.6 mL/min/kg
clearance [27]: 11 mL/min/kg
clearance [28]: 9.3 mL/min/kg
Vd [29]: 2.3 L/kg
Vd [30]: 8 L/kg
Vd [31]: 4.4 L/kg
Cmax [32]: 0.4 µM
Cmax [33]: 0.3 µM
AUC(0-inf) [34]: 3 µM·h
AUC(0-inf) [35]: 1.4 µM·h
AUC(0-inf) [36]: 3.3 µM·h
bioavailability [37]: 42%
half-life [38]: 3 h
Activity (Mus musculus [39]): -69%
Activity (Mus musculus [40]): -78%
Activity (Mus musculus [41]): -91%
Activity (Mus musculus [42]): 3%
Activity (Mus musculus [43]): -39%
Activity (Mus musculus [44]): -79%
Activity (Mus musculus [45]): -89%
Drug uptake [46]: Active
half-life [47]: 23.2 h
half-life [48]: 42 h

From ChEMBL document CHEMBL4359811, “Development of Potent and Selective Pyrazolopyrimidine IRAK4 Inhibitors” (J Med Chem, 2019)
